Structures are written as SMILES.

From patent publication US20210368793A1, “Method for Controlling PPO Resistant Weeds” (BASF SE, priority 2016, published 2021) come the findings set out here.

Common to all, as to assay type: in vivo
In test [1] the test system is Amaranthus tamariscinus (common waterhemp, AMATA), sensitive biotype (w.1). The experiment in a line: Greenhouse herbicidal test, sensitive common waterhemp (w.1). To be noted: for Weed control (%) w.1: sensitive biotype, scale 0 (no damage) to 100 (complete destruction). An excerpt: (§1) The culture containers used were plastic flowerpots containing loamy sand with approximately 3.0% of humus as the substrate. The seeds of the test plants were sown separately for each species and/or resistant biotype. For the pre-emergence treatment, the active ingredients, which had been suspended or emulsified in water, were applied directly after sowing by means of finely distributing nozzles. The containers were irrigated gently to promote germination and growth and subsequently covered with transparent plastic hoods until the plants had rooted. This cover caused uniform germination of the test plants, unless this had been impaired by the active ingredients. For the post-emergence treatment, the test plants were first grown to a height of 3 to 15 cm, depending on the plant habit, and only then treated with the active ingredients which had been suspended or emulsified in water. For this purpose, the test plants were either sown directly and grown in the same containers, or they were first grown separately as seedlings and transplanted into the test containers a few days prior to treatment. Depending on the species, the plants were kept at 10-25° C. or 20-35° C., respectively. The test period extended over 2 to 4 weeks. During this time, the plants were tended, and their response to the individual treatments was evaluated. The evaluation was carried out by using a scale from 0 to 100. 100 means no emergence of the plants or complete destruction of at least the above-ground parts, and 0 means no damage, or normal course of growth.
(§2) The plants used in the greenhouse experiments were of the following species and biotype: […]

The test system of test [2] is Amaranthus tamariscinus (common waterhemp, AMATA), PPO resistant biotype 1 containing the ΔG210 mutation (w.2). The experiment in a line: Greenhouse herbicidal test, PPO resistant common waterhemp biotype 1 (w.2). The settings on record: for activity on resistant weeds (w.2), in words: summary of the table, 2 and 4 g/ha, ΔG210 mutation; for Weed control (%) w.2: PPO resistant biotype 1 (ΔG210), scale 0 to 100.
Excerpt: as §1, §2

Test [3] relates to Amaranthus tamariscinus (common waterhemp, AMATA), PPO resistant biotype 2 containing the ΔG210 mutation (w.3). The experiment in a line: Greenhouse herbicidal test, PPO resistant common waterhemp biotype 2 (w.3). To be noted: for activity on resistant weeds (w.3), in words: summary of the table, 2 and 4 g/ha, ΔG210 mutation; for Weed control (%) w.3: PPO resistant biotype 2 (ΔG210), scale 0 to 100.
Excerpt: as §1, §2

Take `O=C1[C@H]2C[C@H](F)CN2C(=O)N1c1cc(NS(=O)(=O)CCl)c(Cl)cc1F` [(I).1, profluazol]: the “activity on sensitive weeds (w.1), in words” value in test [1] (summary of the table, 2 and 4 g/ha) is “very good activity”. Moreover, the entries for the “Weed control (%) w.1” value in test [1] (use rate 2 g/ha) and in test [1] (use rate 4 g/ha) were 88% and 100%, respectively. In addition, in test [2], the “activity on resistant weeds (w.2), in words” value is listed as “very good activity”. The results for the “Weed control (%) w.2” value in test [2] (use rate 2 g/ha) and in test [2] (use rate 4 g/ha) were 78% and 92%, respectively. In addition, the “activity on resistant weeds (w.3), in words” value in test [3] is on record as “very good activity”. In addition, the results for the “Weed control (%) w.3” value in test [3] (use rate 2 g/ha) and in test [3] (use rate 4 g/ha) were 80% and 88%, respectively.

Turning to `C#CCOc1cc(-n2nc3n(c2=O)CCCC3)c(Cl)cc1Cl` [azafenidin, reference compound], the “Weed control (%) w.1” value in test [1] (use rate 2 g/ha) is reported as 88%; in test [1] (use rate 4 g/ha), 100%. In addition, in test [2], the “activity on resistant weeds (w.2), in words” value was “much weaker control of resistant in comparison to sensitive biotypes”. Further, the entries for the “Weed control (%) w.2” value in test [2] (use rate 2 g/ha) and in test [2] (use rate 4 g/ha) were 62% and 78%, respectively. In test [3], the “activity on resistant weeds (w.3), in words” value is “much weaker control of resistant in comparison to sensitive biotypes”. Further, the “Weed control (%) w.3” value in test [3] (use rate 2 g/ha) and in test [3] (use rate 4 g/ha) was 77% throughout.
